According to ChEMBL document CHEMBL1131124, “Selective inhibitors of human lactate dehydrogenases and lactate dehydrogenase from the malarial parasite Plasmodium falciparum” (J Med Chem, 1998):

Target: L-lactate dehydrogenase B chain (Homo sapiens, UniProt P07195)
Sequence (P07195 whole entry): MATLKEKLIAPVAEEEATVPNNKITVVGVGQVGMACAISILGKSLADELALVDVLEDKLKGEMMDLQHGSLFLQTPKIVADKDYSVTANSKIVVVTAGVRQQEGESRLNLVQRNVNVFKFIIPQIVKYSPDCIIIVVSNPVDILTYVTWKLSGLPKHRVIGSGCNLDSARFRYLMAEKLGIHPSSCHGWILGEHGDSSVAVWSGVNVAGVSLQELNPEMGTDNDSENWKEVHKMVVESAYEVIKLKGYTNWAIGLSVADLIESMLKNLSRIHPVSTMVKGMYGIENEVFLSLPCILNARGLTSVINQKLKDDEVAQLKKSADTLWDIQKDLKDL
Description: inhibitory activity against Human Lactate Dehydrogenase (LDH-H)

Ki [µM]	SMILES
7	Cc1cc2c(C(C)C)c(O)c(O)c(C(=O)O)c2cc1Cc1ccccc1
1	CCCc1c(O)c(O)c(C(=O)O)c2cc(Cc3ccccc3)c(C)cc12
49	CCCc1c(O)c(O)c(C(=O)O)c2ccc(C)cc12
